{
  "source": "paper PMC5218480",
  "about": "(PLoS ONE, 2017)",
  "system": "MV-4-11 cells",
  "assay": "Gene expression microarray analysis (Affymetrix PrimeView) and GSEA",
  "type": "cell-based, human",
  "set-up": "RFU PODN (11730768_x_at) / Fold change /veh PODN (11730768_x_at) / RFU LINC00158 (11744669_a_at) / Fold change /veh LINC00158 (11744669_a_at) / RFU DUSP10 (11751237_a_at) / Fold change /veh DUSP10 (11751237_a_at) / RFU ID3 (11757404_x_at) / Fold change /veh ID3 (11757404_x_at) / RFU PLEKHG5 (11737974_s_at) / Fold change /veh PLEKHG5 (11737974_s_at) / RFU LRRC4B (11730491_at) / Fold change /veh LRRC4B (11730491_at) / RFU GIMAP4 (11747438_a_at) / Fold change /veh GIMAP4 (11747438_a_at) / RFU KRT8 (11758183_x_at) / Fold change /veh KRT8 (11758183_x_at) / RFU CNN1 (11734310_a_at) / Fold change /veh CNN1 (11734310_a_at) / RFU VPS37D (11726825_at) / Fold change /veh VPS37D (11726825_at) / RFU C10orf10 (11716522_x_at) / Fold change /veh C10orf10 (11716522_x_at) / RFU KIR2DL2 /// KIR2DL4 /// KIR2DL5A /// KIR2DL5B /// KIR2DS1 /// KIR2DS2 /// KIR2DS3 /// KIR2DS4 /// KIR3DL3 /// KIR3DL3 /// KIR3DS1 (11738374_at) / Fold change /veh KIR2DL2 /// KIR2DL4 /// KIR2DL5A /// KIR2DL5B /// KIR2DS1 /// KIR2DS2 /// KIR2DS3 /// KIR2DS4 /// KIR3DL3 /// KIR3DL3 /// KIR3DS1 (11738374_at) / RFU C1QL1 (11718748_at) / Fold change /veh C1QL1 (11718748_at) / RFU TMPRSS4 (11747572_a_at) / Fold change /veh TMPRSS4 (11747572_a_at) / RFU HAMP (11756126_x_at) / Fold change /veh HAMP (11756126_x_at) / RFU RNFT2 (11725882_a_at) / Fold change /veh RNFT2 (11725882_a_at) / RFU NR4A2 (11747474_a_at) / Fold change /veh NR4A2 (11747474_a_at) / RFU ABCC12 (11746883_a_at) / Fold change /veh ABCC12 (11746883_a_at) / RFU TMEM136 (11760407_x_at) / Fold change /veh TMEM136 (11760407_x_at) / RFU CLDN22 /// WWC2 (11732394_at) / Fold change /veh CLDN22 /// WWC2 (11732394_at) / RFU HLA-DPB1 (11760878_x_at) / Fold change /veh HLA-DPB1 (11760878_x_at) / RFU SPINT1 (11716480_a_at) / Fold change /veh SPINT1 (11716480_a_at) / RFU GAP43 (11754022_s_at) / Fold change /veh GAP43 (11754022_s_at) / RFU A4GNT (11735810_at) / Fold change /veh A4GNT (11735810_at) / RFU PRB3 (11715151_x_at) / Fold change /veh PRB3 (11715151_x_at) / RFU TUBB4B (11761932_at) / Fold change /veh TUBB4B (11761932_at) / RFU CAPN14 (11732068_a_at) / Fold change /veh CAPN14 (11732068_a_at) / RFU TMCC2 (11721928_a_at) / Fold change /veh TMCC2 (11721928_a_at) / RFU IRGQ (11745062_a_at) / Fold change /veh IRGQ (11745062_a_at) / RFU FAM174B (11720279_a_at) / Fold change /veh FAM174B (11720279_a_at) / RFU TMPRSS4 (11748680_a_at) / Fold change /veh TMPRSS4 (11748680_a_at) / RFU FAM212B (11763350_a_at) / Fold change /veh FAM212B (11763350_a_at) / RFU PLEKHG5 (11743358_a_at) / Fold change /veh PLEKHG5 (11743358_a_at) / RFU ZSCAN30 (11745921_a_at) / Fold change /veh ZSCAN30 (11745921_a_at) / RFU CMKLR1 (11741424_a_at) / Fold change /veh CMKLR1 (11741424_a_at) / RFU LOC101060620 /// MAPK8IP1 (11723275_at) / Fold change /veh LOC101060620 /// MAPK8IP1 (11723275_at) / RFU SPTSSB (11747773_x_at) / Fold change /veh SPTSSB (11747773_x_at) / RFU PRSS12 (11739890_at) / Fold change /veh PRSS12 (11739890_at) / RFU BIN1 (11741810_x_at) / Fold change /veh BIN1 (11741810_x_at) / RFU WNT11 (11732464_a_at) / Fold change /veh WNT11 (11732464_a_at) / RFU C10orf10 (11716521_a_at) / Fold change /veh C10orf10 (11716521_a_at) / RFU C5orf56 (11738089_at) / Fold change /veh C5orf56 (11738089_at) / RFU CYB561 (11721691_x_at) / Fold change /veh CYB561 (11721691_x_at) / RFU ANKRD19P (11752326_a_at) / Fold change /veh ANKRD19P (11752326_a_at) / RFU OR2T12 /// OR2T33 /// OR2T8 (11738714_s_at) / Fold change /veh OR2T12 /// OR2T33 /// OR2T8 (11738714_s_at) / RFU VCAN (11748164_a_at) / Fold change /veh VCAN (11748164_a_at) / RFU JSRP1 (11732532_at) / Fold change /veh JSRP1 (11732532_at) / RFU KRTAP10-11 (11738290_x_at) / Fold change /veh KRTAP10-11 (11738290_x_at) / RFU MYO3A (11730013_a_at) / Fold change /veh MYO3A (11730013_a_at) / RFU EBF3 (11725865_a_at) / Fold change /veh EBF3 (11725865_a_at) / RFU CAMK2N1 (11719241_x_at) / Fold change /veh CAMK2N1 (11719241_x_at) / RFU C5orf56 (11738088_a_at) / Fold change /veh C5orf56 (11738088_a_at) / RFU OLFML3 (11715873_a_at) / Fold change /veh OLFML3 (11715873_a_at) / RFU LOC100653217 /// NTM (11731650_a_at) / Fold change /veh LOC100653217 /// NTM (11731650_a_at) / RFU MAPK11 (11762145_a_at) / Fold change /veh MAPK11 (11762145_a_at) / RFU FIZ1 (11724087_x_at) / Fold change /veh FIZ1 (11724087_x_at) / RFU OASL (11726364_x_at) / Fold change /veh OASL (11726364_x_at) / RFU SOX15 (11748057_x_at) / Fold change /veh SOX15 (11748057_x_at) / RFU CD79A (11719716_a_at) / Fold change /veh CD79A (11719716_a_at) / RFU HIST1H1D (11736915_at) / Fold change /veh HIST1H1D (11736915_at) / RFU CASKIN2 (11723855_a_at) / Fold change /veh CASKIN2 (11723855_a_at) / RFU LOC730098 (11760151_x_at) / Fold change /veh LOC730098 (11760151_x_at) / RFU OR4N2 (11742367_at) / Fold change /veh OR4N2 (11742367_at) / RFU PRRT2 (11749266_a_at) / Fold change /veh PRRT2 (11749266_a_at) / RFU SNX32 (11753110_a_at) / Fold change /veh SNX32 (11753110_a_at) / RFU CDHR5 (11726645_a_at) / Fold change /veh CDHR5 (11726645_a_at) / RFU RCAN1 (11760418_a_at) / Fold change /veh RCAN1 (11760418_a_at) / RFU FAM167A (11723789_a_at) / Fold change /veh FAM167A (11723789_a_at) / RFU FAM26E (11764081_at) / Fold change /veh FAM26E (11764081_at) / RFU ISYNA1 (11749810_s_at) / Fold change /veh ISYNA1 (11749810_s_at) / RFU ACY1 (11761880_at) / Fold change /veh ACY1 (11761880_at) / RFU 11764098_at / Fold change /veh 11764098_at / RFU SAMD14 (11745864_x_at) / Fold change /veh SAMD14 (11745864_x_at) / RFU NPB (11741838_a_at) / Fold change /veh NPB (11741838_a_at) / RFU TMPRSS6 (11731388_a_at) / Fold change /veh TMPRSS6 (11731388_a_at) / RFU KRTAP10-2 (11738614_at) / Fold change /veh KRTAP10-2 (11738614_at) / RFU ARHGAP8 /// PRR5-ARHGAP8 (11727945_x_at) / Fold change /veh ARHGAP8 /// PRR5-ARHGAP8 (11727945_x_at) / RFU KRTAP5-7 /// NADSYN1 (11734609_at) / Fold change /veh KRTAP5-7 /// NADSYN1 (11734609_at) / RFU RASL12 (11751679_a_at) / Fold change /veh RASL12 (11751679_a_at) / RFU CDKN2B (11736163_a_at) / Fold change /veh CDKN2B (11736163_a_at) / RFU PRF1 (11729649_at) / Fold change /veh PRF1 (11729649_at) / RFU, ZNF638 /// ZNF638-IT1 / Fold change vs veh, ZNF638 /// ZNF638-IT1 / RFU, PANK3 / Fold change vs veh, PANK3 / RFU, SH3YL1 / Fold change vs veh, SH3YL1 / RFU, ZEB2 / Fold change vs veh, ZEB2 / RFU, NRIP1 / Fold change vs veh, NRIP1 / RFU, PTTG1IP / Fold change vs veh, PTTG1IP / RFU, CAPN2 / Fold change vs veh, CAPN2 / RFU, MED14 / Fold change vs veh, MED14 / RFU, SNORA58 / Fold change vs veh, SNORA58 / RFU, C1orf63 / Fold change vs veh, C1orf63 / RFU, LRRFIP1 / Fold change vs veh, LRRFIP1 / RFU, NDUFAF7 / Fold change vs veh, NDUFAF7 / RFU, SLC12A2 / Fold change vs veh, SLC12A2 / RFU, IBTK / Fold change vs veh, IBTK / RFU, ESF1 / Fold change vs veh, ESF1 / Fold change vs veh, TMEM50B / RFU, TAOK1 / Fold change vs veh, TAOK1 / RFU, ACBD3 / Fold change vs veh, ACBD3 / RFU, TMA16 / Fold change vs veh, TMA16 / RFU, RWDD3 / Fold change vs veh, RWDD3 / RFU, BCAT1 / Fold change vs veh, BCAT1 / RFU, EDEM3 / Fold change vs veh, EDEM3 / RFU, TMEM33 / Fold change vs veh, TMEM33 / RFU, WDR75 / Fold change vs veh, WDR75 / RFU, AHCTF1 / Fold change vs veh, AHCTF1 / RFU, TFRC / Fold change vs veh, TFRC / RFU, ZDHHC17 / Fold change vs veh, ZDHHC17 / RFU, NOM1 / Fold change vs veh, NOM1 / RFU, ARL8B / Fold change vs veh, ARL8B / RFU, ZBTB11 / Fold change vs veh, ZBTB11 / RFU, TAMM41 / Fold change vs veh, TAMM41 / RFU, KIAA1704 /// LOC100996395 / Fold change vs veh, KIAA1704 /// LOC100996395 / RFU, ING1 / Fold change vs veh, ING1 / RFU, TRMT61B / Fold change vs veh, TRMT61B / RFU, FUBP3 / Fold change vs veh, FUBP3 / RFU, TP53 / Fold change vs veh, TP53 / RFU, TNKS2 / Fold change vs veh, TNKS2 / RFU, ZFP14 / Fold change vs veh, ZFP14 / RFU, ACTR2 / Fold change vs veh, ACTR2 / RFU, PPP3R1 / Fold change vs veh, PPP3R1 / RFU, PIK3R1 / Fold change vs veh, PIK3R1 / RFU, HNRNPA1 / Fold change vs veh, HNRNPA1 / RFU, RNF170 / Fold change vs veh, RNF170 / RFU, ZNF28 / Fold change vs veh, ZNF28 / RFU, RNGTT / Fold change vs veh, RNGTT / RFU, OGT / Fold change vs veh, OGT / RFU, BRD1 / Fold change vs veh, BRD1 / RFU, MARS / Fold change vs veh, MARS / RFU, ZNF655 / Fold change vs veh, ZNF655 / RFU, FAHD1 / Fold change vs veh, FAHD1 / RFU, BDP1 / Fold change vs veh, BDP1 / RFU, LRRCC1 / Fold change vs veh, LRRCC1 / RFU, ARID1A / Fold change vs veh, ARID1A / RFU, ZNF146 / Fold change vs veh, ZNF146 / RFU, ZNF330 / Fold change vs veh, ZNF330 / RFU, GPN3 / Fold change vs veh, GPN3 / RFU, C9orf123 / Fold change vs veh, C9orf123 / RFU, N4BP2L2 / Fold change vs veh, N4BP2L2 / RFU, ARFIP1 / Fold change vs veh, ARFIP1 / RFU, FAM179B / Fold change vs veh, FAM179B / RFU, BCL10 / Fold change vs veh, BCL10 / RFU, UHRF1BP1L / Fold change vs veh, UHRF1BP1L / RFU, BET1 / Fold change vs veh, BET1 / RFU, CNOT2 / Fold change vs veh, CNOT2 / RFU, ZNF268 / Fold change vs veh, ZNF268 / Fold change vs veh, ZNF507 / RFU, DGCR2 / Fold change vs veh, DGCR2 / RFU, WDSUB1 / Fold change vs veh, WDSUB1 / Fold change vs veh, HSP90B1 /// MIR3652 / RFU, ADSS / Fold change vs veh, ADSS / RFU, GK / Fold change vs veh, GK / RFU, ZNF148 / Fold change vs veh, ZNF148 / RFU, TAF9 / Fold change vs veh, TAF9 / RFU, SLC1A5 / Fold change vs veh, SLC1A5 / RFU, SLMO2 / Fold change vs veh, SLMO2 / RFU, ABCC4 / Fold change vs veh, ABCC4 / RFU, LOC101060439 /// RAP1B / Fold change vs veh, LOC101060439 /// RAP1B / RFU, RFX7 / Fold change vs veh, RFX7 / RFU, GTPBP10 / Fold change vs veh, GTPBP10 / RFU, CNEP1R1 / Fold change vs veh, CNEP1R1 / RFU, BIVM-ERCC5 /// ERCC5 / Fold change vs veh, BIVM-ERCC5 /// ERCC5 / RFU, ILF3 / Fold change vs veh, ILF3 / RFU 11762660_at / Fold change /veh 11762660_at / RFU VCAN (11757783_s_at) / Fold change /veh VCAN (11757783_s_at) / RFU DDX43 (11728927_at) / Fold change /veh DDX43 (11728927_at) / RFU KRT8 (11758188_x_at) / Fold change /veh KRT8 (11758188_x_at) / RFU NKD1 (11759106_at) / Fold change /veh NKD1 (11759106_at) / RFU SRD5A1 (11742802_a_at) / Fold change /veh SRD5A1 (11742802_a_at) / RFU TPSAB1 /// TPSB2 (11721975_s_at) / Fold change /veh TPSAB1 /// TPSB2 (11721975_s_at) / RFU GSTM3 (11746129_a_at) / Fold change /veh GSTM3 (11746129_a_at) / RFU IL23R (11737362_x_at) / Fold change /veh IL23R (11737362_x_at) / RFU TMEM51 (11727254_a_at) / Fold change /veh TMEM51 (11727254_a_at) / RFU PIWIL2 (11732686_x_at) / Fold change /veh PIWIL2 (11732686_x_at) / RFU ORM1 (11744905_x_at) / Fold change /veh ORM1 (11744905_x_at) / RFU CCDC152 (11743942_at) / Fold change /veh CCDC152 (11743942_at) / RFU ECM1 (11717891_a_at) / Fold change /veh ECM1 (11717891_a_at) / RFU IL23R (11748794_a_at) / Fold change /veh IL23R (11748794_a_at) / RFU TNFAIP8L3 (11732012_x_at) / Fold change /veh TNFAIP8L3 (11732012_x_at) / RFU MBOAT4 (11741988_at) / Fold change /veh MBOAT4 (11741988_at) / RFU 11764193_at / Fold change /veh 11764193_at / RFU TMEM53 (11763286_at) / Fold change /veh TMEM53 (11763286_at) / RFU MAGEB2 (11727129_at) / Fold change /veh MAGEB2 (11727129_at) / RFU TMEM200A (11744735_a_at) / Fold change /veh TMEM200A (11744735_a_at) / RFU CCDC152 (11751479_a_at) / Fold change /veh CCDC152 (11751479_a_at) / RFU FAM211A (11726209_a_at) / Fold change /veh FAM211A (11726209_a_at) / RFU RGS16 (11746705_a_at) / Fold change /veh RGS16 (11746705_a_at) / RFU VCAN (11755009_s_at) / Fold change /veh VCAN (11755009_s_at) / RFU RHOB (11743442_s_at) / Fold change /veh RHOB (11743442_s_at) / RFU RGS16 (11720943_a_at) / Fold change /veh RGS16 (11720943_a_at) / RFU RGS16 (11720944_at) / Fold change /veh RGS16 (11720944_at) / RFU, VPS4B / Fold change vs veh, VPS4B / RFU, CREB1 / Fold change vs veh, CREB1 / RFU, DNAJC13 / Fold change vs veh, DNAJC13 / RFU, GNAQ / Fold change vs veh, GNAQ / RFU, CDK5R1 / Fold change vs veh, CDK5R1 / RFU, ZRANB3 / Fold change vs veh, ZRANB3 / RFU, CUL4A / Fold change vs veh, CUL4A / RFU, CCNY / Fold change vs veh, CCNY / RFU, UFL1 / Fold change vs veh, UFL1 / RFU, COG3 / Fold change vs veh, COG3 / RFU, DIAPH2 / Fold change vs veh, DIAPH2 / RFU, SKA2 / Fold change vs veh, SKA2 / RFU, AFF3 / Fold change vs veh, AFF3 / RFU, LMF1 / Fold change vs veh, LMF1 / RFU, IPO11 / Fold change vs veh, IPO11 / RFU, DFFB / Fold change vs veh, DFFB / RFU, FOXP1 / Fold change vs veh, FOXP1 / RFU, CARD8 / Fold change vs veh, CARD8 / RFU, STRN3 / Fold change vs veh, STRN3 / RFU, ADK / Fold change vs veh, ADK / RFU, RASSF2 / Fold change vs veh, RASSF2 / RFU, WIPF1 / Fold change vs veh, WIPF1 / RFU, LARP1B / Fold change vs veh, LARP1B / RFU, RASA1 / Fold change vs veh, RASA1 / RFU, RB1 / Fold change vs veh, RB1 / RFU, PPFIA1 / Fold change vs veh, PPFIA1 / RFU, MAT2A / Fold change vs veh, MAT2A / RFU, CCT5 / Fold change vs veh, CCT5 / RFU, WDR92 / Fold change vs veh, WDR92 / RFU, CUX1 / Fold change vs veh, CUX1 / RFU, TTC7A / Fold change vs veh, TTC7A / RFU, TMEM135 / Fold change vs veh, TMEM135 / RFU, DEPTOR / Fold change vs veh, DEPTOR / RFU, CPM / Fold change vs veh, CPM / RFU, DNAJB6 / Fold change vs veh, DNAJB6 / RFU, CACNA2D3 / Fold change vs veh, CACNA2D3 / RFU, DTX4 / Fold change vs veh, DTX4 / RFU, TFCP2 / Fold change vs veh, TFCP2 / RFU, GMCL1 /// GMCL1P1 / Fold change vs veh, GMCL1 /// GMCL1P1 / RFU, AEBP2 / Fold change vs veh, AEBP2 / RFU, SNHG1 /// SNORD22 /// SNORD25 /// SNORD26 /// SNORD27 /// SNORD28 /// SNORD29 /// SNORD31 / Fold change vs veh, SNHG1 /// SNORD22 /// SNORD25 /// SNORD26 /// SNORD27 /// SNORD28 /// SNORD29 /// SNORD31 / Fold change (Aza/veh), C12orf56 (ProbeSet 11735607_a_at) / Fold change (ACY-1035/veh), C12orf56 (ProbeSet 11735607_a_at) / Fold change (Aza/veh), FGFR1OP (ProbeSet 11751329_s_at) / Fold change (ACY-1035/veh), FGFR1OP (ProbeSet 11751329_s_at) / Fold change (Aza/veh), VPS36 (ProbeSet 11739960_a_at) / Fold change (ACY-1035/veh), VPS36 (ProbeSet 11739960_a_at) / RFU SYPL1 (11715823_x_at) / Fold change /veh SYPL1 (11715823_x_at) / RFU IGFBP7 (11715501_s_at) / Fold change /veh IGFBP7 (11715501_s_at) / RFU REEP3 (11722064_at) / Fold change /veh REEP3 (11722064_at) / RFU IGLL1 (11728026_x_at) / Fold change /veh IGLL1 (11728026_x_at): dose or concentration left out as unconfirmed",
  "settings": "MV-4-11 cells, 48 hours",
  "data": [
    {"compound": "Nc1ccc(-c2cccs2)cc1NC(=O)c1ccc2c(c1)cc(C1CC1)n2CCN1CCOCC1", "note": "[ACY-1035]", "values": [
      {"measurement": "Fold change /veh NR4A2 (11747474_a_at)", "result": 0.99}
    ]}
  ]
}
